Reference: patent publication US6737383B1, “Herbicidal oxadiazolidines” (priority 1999, dated 2004)

What was measured:
purple nutsedge = assay: Test B pre/postemergence purple nutsedge; type: in vivo, Cyperus rotundus
Method in brief: (§1)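 Response is a visual 0-to-10 score relative to untreated plants, where 0 means no effect and 10 means complete control, taken twelve to sixteen days after application. Treatments went onto soil at planting and onto foliage of 1- to 4-leaf plants, using a surfactant-containing non-phytotoxic solvent.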

cocklebur = assay: Test B pre/postemergence cocklebur; type: in vivo, Xanthium strumarium
Method in brief: as §1

bedstraw = assay: Test B pre/postemergence bedstraw; type: in vivo, Galium aparine
Method in brief: as §1

giant foxtail = assay: Test B pre/postemergence giant foxtail; type: in vivo, Setaria faberii
Method in brief: as §1

surinam grass = assay: Test B pre/postemergence surinam grass; type: in vivo, Brachiaria decumbens
Method in brief: as §1

pigweed = assay: Test B pre/postemergence pigweed; type: in vivo, Amaranthus retroflexus
Method in brief: as §1

sugar beet = assay: Test B pre/postemergence sugar beet; type: in vivo, Beta vulgaris
Method in brief: as §1

morningglory = assay: Test B pre/postemergence morningglory; type: in vivo, Ipomoea hederacea
Method in brief: as §1

velvetleaf = assay: Test B pre/postemergence velvetleaf; type: in vivo, Abutilon theophrasti
Method in brief: as §1

soybean = assay: Test B pre/postemergence soybean; type: in vivo, Glycine max
Method in brief: as §1

wild oat = assay: Test B pre/postemergence wild oat; type: in vivo, Avena fatua
Method in brief: as §1

crabgrass = assay: Test B pre/postemergence crabgrass; type: in vivo, Digitaria sanguinalis
Method in brief: as §1

rape = assay: Test B pre/postemergence rape; type: in vivo, Brassica napus
Method in brief: as §1

blackgrass = assay: Test B pre/postemergence blackgrass; type: in vivo, Alopecurus myosuroides
Method in brief: as §1

wheat = assay: Test B pre/postemergence wheat; type: in vivo, Triticum aestivum
Method in brief: as §1

corn = assay: Test B pre/postemergence corn; type: in vivo, Zea mays
Method in brief: as §1

[1] = Postemergence, Rate 125 g/ha, scale 0 to 10, 0 is no effect, 10 is complete control
[2] = Postemergence, Rate 500 g/ha, scale 0 to 10, 0 is no effect, 10 is complete control
[3] = Preemergence, Rate 62 g/ha, scale of 0 to 10 where 0 is no effect and 10 is complete control
[4] = Preemergence, Rate 125 g/ha, scale 0 to 10, 0 is no effect, 10 is complete control
[5] = Preemergence, Rate 500 g/ha, scale of 0 to 10 where 0 is no effect and 10 is complete control
[6] = Postemergence, Rate 62 g/ha, scale of 0 to 10, 0 is no effect, 10 is complete control
[7] = Postemergence, Rate 250 g/ha, scale 0 to 10
[8] = Preemergence, Rate 250 g/ha, scale 0 to 10, 0 is no effect, 10 is complete control
[9] = Preemergence, Rate 500 g/ha, scale 0 to 10, 0 is no effect, 10 is complete control

CC(C)N(C(=O)n1oc(=O)n(CC2OCCO2)c1=O)c1ccc(F)cc1F [Compound 501] was tested, and the “Nutsedge plant response rating” value (purple nutsedge; [1]) was 0, the “Plant response rating, Nutsedge” value (purple nutsedge; [2]) was 2 and the “Plant response rating, Nutsedge” value (purple nutsedge; [3]) was 0. For the same molecule, the “Nutsedge plant response rating” value (purple nutsedge; [4]) was 3, the “Nutsedge plant response rating” value (purple nutsedge; [5]) was 9 and the “Cocklebur plant response rating” value (cocklebur; [6]) was 0. For the same molecule, the “Cocklebur plant response rating” value (cocklebur; [1]) was 0, the “Cocklebur plant response rating” value (cocklebur; [7]) was 2 and the “Plant response rating, Cocklebur” value (cocklebur; [2]) was 5. The “Plant response rating, Cocklebur” value (cocklebur; [3]) was 0, the “Cocklebur plant response rating” value (cocklebur; [4]) was 0 and the “Cocklebur plant response rating” value (cocklebur; [8]) was 0. For the same molecule, the “Cocklebur plant response rating” value (cocklebur; [5]) was 3, the “Plant response rating, Bedstraw” value (bedstraw; [2]) was 9 and the “Plant response rating, Bedstraw” value (bedstraw; [3]) was 2. The “Bedstraw plant response rating” value (bedstraw; [4]) was 9, the “Bedstraw plant response rating” value (bedstraw; [8]) was 10 and the “Bedstraw plant response rating” value (bedstraw; [9]) was 9. The “Giant foxtail plant response rating” value (giant foxtail; [6]) was 8, the “Giant foxtail plant response rating” value (giant foxtail; [1]) was 8 and the “Plant response rating, Giant foxtail” value (giant foxtail; [2]) was 8. The “Plant response rating, Giant foxtail” value (giant foxtail; [3]) was 9, the “Giant foxtail plant response rating” value (giant foxtail; [4]) was 10 and the “Giant foxtail plant response rating” value (giant foxtail; [5]) was 10. For the same molecule, the “B. signalgrass plant response rating” value (surinam grass; [6]) was 2, the “B. signalgrass plant response rating” value (surinam grass; [1]) was 6 and the “B. signalgrass plant response rating” value (surinam grass; Postemergence, Rate 250 g/ha, scale 0 to 10, 0 no effect, 10 complete control) was 7. For the same molecule, the “Plant response rating, B. signalgrass” value (surinam grass; [2]) was 7, the “Plant response rating, B. signalgrass” value (surinam grass; [3]) was 8 and the “B. signalgrass plant response rating” value (surinam grass; [4]) was 9. For the same molecule, the “B. signalgrass plant response rating” value (surinam grass; [8]) was 9, the “B. signalgrass plant response rating” value (surinam grass; [9]) was 10 and the “Redroot pigweed plant response rating” value (pigweed; [6]) was 0. The “Redroot pigweed plant response rating” value (pigweed; [1]) was 4, the “Plant response rating, Redroot pigweed” value (pigweed; [2]) was 5 and the “Plant response rating, Redroot pigweed” value (pigweed; [3]) was 9. For the same molecule, the “Redroot pigweed plant response rating” value (pigweed; [4]) was 10, the “Redroot pigweed plant response rating” value (pigweed; [5]) was 10 and the “Sugarbeets plant response rating” value (sugar beet; [6]) was 5. For the same molecule, the “Sugarbeets plant response rating” value (sugar beet; [1]) was 5, the “Plant response rating, Sugarbeets” value (sugar beet; [2]) was 8 and the “Plant response rating, Sugarbeets” value (sugar beet; [3]) was 0. The “Sugarbeets plant response rating” value (sugar beet; [4]) was 3, the “Sugarbeets plant response rating” value (sugar beet; [5]) was 8 and the “Morningglory plant response rating” value (morningglory; [6]) was 0. For the same molecule, the “Morningglory plant response rating” value (morningglory; [1]) was 3, the “Plant response rating, Morningglory” value (morningglory; [2]) was 4 and the “Plant response rating, Morningglory” value (morningglory; [3]) was 0. The “Morningglory plant response rating” value (morningglory; [4]) was 0, the “Morningglory plant response rating” value (morningglory; [5]) was 5 and the “Velvetleaf plant response rating” value (velvetleaf; [6]) was 0. The “Velvetleaf plant response rating” value (velvetleaf; [1]) was 0, the “Plant response rating, Velvetleaf” value (velvetleaf; [2]) was 3 and the “Plant response rating, Velvetleaf” value (velvetleaf; [3]) was 0. For the same molecule, the “Velvetleaf plant response rating” value (velvetleaf; [4]) was 2, the “Velvetleaf plant response rating” value (velvetleaf; [5]) was 5 and the “Soybean plant response rating” value (soybean; [6]) was 4. The “Soybean plant response rating” value (soybean; [1]) was 3, the “Plant response rating, Soybean” value (soybean; [2]) was 5 and the “Plant response rating, Soybean” value (soybean; [3]) was 0. For the same molecule, the “Soybean plant response rating” value (soybean; [4]) was 0, the “Soybean plant response rating” value (soybean; [5]) was 8 and the “Wild oats plant response rating” value (wild oat; [6]) was 0. The “Wild oats plant response rating” value (wild oat; [1]) was 0, the “Plant response rating, Wild oats” value (wild oat; [2]) was 3 and the “Plant response rating, Wild oats” value (wild oat; [3]) was 0. For the same molecule, the “Wild oats plant response rating” value (wild oat; [4]) was 7, the “Wild oats plant response rating” value (wild oat; [5]) was 10 and the “Crabgrass plant response rating” value (crabgrass; [6]) was 7. For the same molecule, the “Crabgrass plant response rating” value (crabgrass; [1]) was 8, the “Crabgrass plant response rating” value (crabgrass; [7]) was 9 and the “Plant response rating, Crabgrass” value (crabgrass; [2]) was 8. For the same molecule, the “Plant response rating, Crabgrass” value (crabgrass; [3]) was 8, the “Crabgrass plant response rating” value (crabgrass; [4]) was 9 and the “Crabgrass plant response rating” value (crabgrass; [5]) was 9. The “Rape plant response rating” value (rape; [6]) was 2, the “Rape plant response rating” value (rape; [1]) was 2 and the “Plant response rating, Rape” value (rape; [2]) was 7. For the same molecule, the “Plant response rating, Rape” value (rape; [3]) was 0, the “Rape plant response rating” value (rape; [4]) was 0 and the “Rape plant response rating” value (rape; [5]) was 10. For the same molecule, the “Blackgrass plant response rating” value (blackgrass; [6]) was 3, the “Blackgrass plant response rating” value (blackgrass; [1]) was 6 and the “Blackgrass plant response rating” value (blackgrass; [7]) was 6. For the same molecule, the “Plant response rating, Blackgrass” value (blackgrass; [2]) was 7, the “Plant response rating, Blackgrass” value (blackgrass; [3]) was 5 and the “Blackgrass plant response rating” value (blackgrass; [4]) was 5. For the same molecule, the “Blackgrass plant response rating” value (blackgrass; [8]) was 9, the “Blackgrass plant response rating” value (blackgrass; [5]) was 9 and the “Wheat plant response rating” value (wheat; [6]) was 2. For the same molecule, the “Plant response rating, Wheat” value (wheat; [2]) was 3, the “Plant response rating, Wheat” value (wheat; [3]) was 4 and the “Wheat plant response rating” value (wheat; [4]) was 4. The “Wheat plant response rating” value (wheat; [5]) was 8, the “Corn plant response rating” value (corn; [6]) was 0 and the “Corn plant response rating” value (corn; [1]) was 0. The “Corn plant response rating” value (corn; [7]) was 4, the “Plant response rating, Corn” value (corn; [2]) was 6 and the “Corn plant response rating” value (corn; [4]) was 2.
